The text below walks through data of article PMC9694146, “Novel [1,2,4]triazolo[3,4-b][1,3,4]thiadiazine and [1,2,4]triazolo[3,4-b][1,3,4]thiadiazepine Derivatives: Synthesis, Anti-Viral In Vitro Study and Target Validation Activity” (Molecules, 2022).

The structures appear in SMILES notation. A value given as a limit tells only on which side of the number the result lay.

Test system in one series: not listed separately
Nature of the series: Cytotoxicity, methyltetrazolium (MTT) assay on MDCK cell monolayer. The settings on record: dog; MDCK cells, 72 h, MTT; read-out: CC50, cytotoxic concentration; the concentration resulting in 50% death of cells. The series is classed as cell-based. As for the experimental part:
(§1) The cytotoxic properties of the compounds were investigated in a separate series of experiments. A series of threefold dilutions (300–3.7 µg/mL) were prepared from the test compounds, after which they were added to the wells of plates with a monolayer of MDCK cells (ATCC CCL-34). […] The plates with cells were incubated for 2 h. The precipitate was dissolved in DMSO (0.1 mL per well). The optical density in the wells was measured on a Thermo Multiskan FC plate photometer (Thermo Fisher Scientific, USA) at a wavelength of 540 nm. Based on the obtained data, CC50 values (the concentration of the compound, leading to a decrease in optical density by half, compared to wells without the addition of compounds) were calculated.
For the molecule `C1=Nn2cnnc2S/C1=C\c1ccccc1` [Compound 6a, (Z)-7-benzylidene-7H-[1,2,4]triazolo[3,4-b][1,3,4]thiadiazine], the CC50 at 72 h was found to be 578 ± 32.3 µM. The same measure, in the same setting: to `CCc1nnc2n1N=CC=C(c1ccccc1)S2` [Compound 7c, 3-ethyl-8-phenyl-[1,2,4]triazolo[3,4-b][1,3,4]thiadiazepine] belongs 6.1 ± 0.3 µM; to `CCC(CC)O[C@@H]1C=C(C(=O)O)C[C@H](N)[C@H]1NC(C)=O` [Oseltamivir carboxylate, reference compound], above 100 µM; to `CCc1nnc2n1N=C/C(=C/c1ccccc1)S2` [Compound 6c, (Z)-7-benzylidene-3-ethyl-7H-[1,2,4]triazolo[3,4-b][1,3,4]thiadiazine], 979 ± 55.1 µM.

`C(=C1\CNn2cnnc2S1)/c1ccccc1` [Compound 8a, (Z)-7-benzylidene-6,7-dihydro-5H-[1,2,4]triazolo[3,4-b][1,3,4]thiadiazine]: the CC50 at 72 h was above 1300 µM.

`CCc1nnc(S)n1N=CC#Cc1ccccc1` [Compound 1c, 5-ethyl-4-((3-phenylprop-2-yn-1-ylidene)amino)-4H-1,2,4-triazole-3-thiol]: the CC50 at 72 h was determined as 119 ± 9.6 µM. Consider `Cc1nnc2n1N=C/C(=C/c1ccccc1)S2` [Compound 6b, (Z)-7-benzylidene-3-methyl-7H-[1,2,4]triazolo[3,4-b][1,3,4]thiadiazine], for which the CC50 at 72 h worked out at 433 ± 37.6 µM. Same read-out and setting: in the case of `Sc1nncn1NCC#Cc1ccccc1` [Compound 2a, 4-((3-phenylprop-2-yn-1-yl)amino)-4H-1,2,4-triazole-3-thiol] it was above 1300 µM; in that of `Cc1nnc2n1NC/C(=C/c1ccccc1)S2` [Compound 8b, (Z)-7-benzylidene-3-methyl-6,7-dihydro-5H-[1,2,4]triazolo[3,4-b][1,3,4]thiadiazine], above 1200 µM.

For `CCCc1nnc2n1N=C/C(=C/c1ccccc1)S2` [Compound 6d, (Z)-7-benzylidene-3-propyl-7H-[1,2,4]triazolo[3,4-b][1,3,4]thiadiazine], the CC50 at 72 h was above 1100 µM. On the same count and under the same terms, in the case of `Cc1nnc(S)n1NCC#Cc1ccccc1` [Compound 2b, 5-methyl-4-((3-phenylprop-2-yn-1-yl)amino)-4H-1,2,4-triazole-3-thiol] it was above 1200 µM; in that of `C1=C(c2ccccc2)Sc2nncn2NC1` [Compound 10a, 8-phenyl-5,6-dihydro-[1,2,4]triazolo[3,4-b][1,3,4]thiadiazepine], above 1300 µM.

Turning to `CCc1nnc2n1NC/C(=C/c1ccccc1)S2` [Compound 8c, (Z)-7-benzylidene-3-ethyl-6,7-dihydro-5H-[1,2,4]triazolo[3,4-b][1,3,4]thiadiazine], the CC50 at 72 h was above 1100 µM. Regarding `CCCc1nnc(S)n1NCC#Cc1ccccc1` [Compound 2d, 5-propyl-4-((3-phenylprop-2-yn-1-yl)amino)-4H-1,2,4-triazole-3-thiol], the CC50 at 72 h was found to be 138 ± 12 µM. Still for that read-out and setting: to `CC(N)C12CC3CC(CC(C3)C1)C2` (centres unmarked) [Rimantadine, reference compound] belongs 312 ± 22.8 µM. On the same count and under the same terms, to `CCc1nnc(S)n1NCC#Cc1ccccc1` [Compound 2c, 5-ethyl-4-((3-phenylprop-2-yn-1-yl)amino)-4H-1,2,4-triazole-3-thiol] belongs 487 ± 22.5 µM; to `C1=Nn2cnnc2SC(c2ccccc2)=C1` [Compound 7a, 8-phenyl-[1,2,4]triazolo[3,4-b][1,3,4]thiadiazepine], 42.9 ± 3.2 µM. As to `Sc1nncn1N=CC#Cc1ccccc1` [Compound 1a, 4-((3-phenylprop-2-yn-1-ylidene)amino)-4H-1,2,4-triazole-3-thiol], the CC50 at 72 h amounted to 134 ± 11 µM. The same measure, in the same setting: in the case of `Cc1nnc2n1NCC=C(c1ccccc1)S2` [Compound 10b, 3-methyl-8-phenyl-5,6-dihydro-[1,2,4]triazolo[3,4-b][1,3,4]thiadiazepine] it was above 1100 µM; in that of `CCc1nnc2n1NCC=C(c1ccccc1)S2` [Compound 10c, 3-ethyl-8-phenyl-5,6-dihydro-[1,2,4]triazolo[3,4-b][1,3,4]thiadiazepine], 972 ± 66.4 µM; in that of `Cc1nnc(S)n1N=CC#Cc1ccccc1` [Compound 1b, 5-methyl-4-((3-phenylprop-2-yn-1-ylidene)amino)-4H-1,2,4-triazole-3-thiol], 126 ± 11.3 µM. On to `CCCc1nnc2n1NC/C(=C/c1ccccc1)S2` [Compound 8d, (Z)-7-benzylidene-3-propyl-6,7-dihydro-5H-[1,2,4]triazolo[3,4-b][1,3,4]thiadiazine], for which the CC50 at 72 h is above 1100 µM.

A further series deals with MDCK cells (ATCC CCL-34). The description is as above. Format: cell-based. The settings on record: 300 μg/mL, 1100–1300 μM. As for the experimental part: as §1
As to `CCCc1nnc2n1N=C/C(=C/c1ccccc1)S2` [Compound 6d, (Z)-7-benzylidene-3-propyl-7H-[1,2,4]triazolo[3,4-b][1,3,4]thiadiazine], the “cytotoxicity at the highest concentration used” value is “did not demonstrate cytotoxicity”.

The series is the same for the next values; noted with them: 72 h, MTT.
On to `CCc1nnc2n1N=CC=C(c1ccccc1)S2` [Compound 7c, 3-ethyl-8-phenyl-[1,2,4]triazolo[3,4-b][1,3,4]thiadiazepine], for which the “CC50, cytotoxic concentration; the concentration resulting in 50% death of cells” value is on record as “one-digit micromoles”.

Test system in a further series: not given
Experiment: not given
Conditions: not given
In turn, `CCCc1nnc2n1NCC=C(c1ccccc1)S2` registered a melting point of 103 to 104 °C. `CCCc1nnc2n1N=CC=C(c1ccccc1)S2` yielded a melting point of 88 to 89 °C.
